Experimental data as given in US20070077283A1, “METHOD OF ENHANCING TRANSMUCOSAL DELIVERY OF THERAPEUTIC COMPOUNDS” (Nastech Pharmaceutical Company Inc., priority 2005, published 2007).
Where “and” joins values, the source holds several entries; their conditions need not be identical. Equal entries are not always repeated.

Columns and labels:
[1] = tested on: human-derived tracheal/bronchial epithelial cells (EpiAirway Tissue Model); experiment: Transepithelial electrical resistance (TER) of an epithelial cell monolayer; type: cell-based; settings: for activity at 1000 µM / activity at 500 µM: Homo sapiens, Epithelial cell, 1 h, read-out: Mean % of Original TER Value; for activity at 1000 µM: lower value = greater TER reduction (Table 4); for TER reduction within 15 minutes: 15 minute incubation; for activity at 500 µM: lipid 500 μM (Table 4)
Summary of the method: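 EpiAirway human tracheal/bronchial epithelial tissue inserts, fed daily during recovery; resistance read with EVOM voltohmmeter in Endohm-12 chamber in MatTek medium, blank-insert background (about 5-20 ohms) measured. TER normalised to tissue surface area, expressed as Ohms*cm2 and percent of original TER; lower TER taken as enhanced permeation.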

in vitro = experiment: in vitro
Summary of the method: (§1)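 EpiAirway cultures treated 1 h with each lipid; PBS as negative control. LDH released apically and basolaterally measured colorimetrically at 490 nm after 30 min substrate incubation at room temperature. Cytotoxicity expressed as percent of 1% Triton X-100 lysis control, set to 100%.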

[2] = tested on: human-derived tracheal/bronchial epithelial cells (EpiAirway Tissue Model); experiment: in vitro
Summary of the method: as §1

[3] = tested on: human-derived tracheal/bronchial epithelial cells (EpiAirway Tissue Model); experiment: FITC-Dextran permeation assay across epithelial cell monolayer; type: cell-based; settings: for Mean % FD3 Permeation: FITC-dextran 3000 (Table 4); for permeation of FD3 relative to negative controls: text summary of Table 4
Summary of the method: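 Formulations applied apically to EpiAirway tissue inserts, shaken ~100 rpm 1.5 hours at 37 °C, with FITC-dextran (3-500 kDa) added apically. Basolateral fluorescence read at 470 nm in triplicate; result expressed as percent of FITC-dextran crossing apical to basolateral.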

[4] = % Cytotoxicity, lipid 1000 μM in Buffer I, apical LDH release
[5] = % Cytotoxicity, lipid 1000 μM in Buffer II, apical LDH release
[6] = in the presence of FITC-Dextran FD3 (Table 6)
[7] = in the presence of FITC-Dextran FD10 (Table 6)
[8] = in the presence of FITC-Dextran FD40 (Table 6)
[9] = in the presence of FITC-Dextran FD70 (Table 6)
[10] = in the presence of FITC-Dextran FD500 (Table 6)
[11] = lipid 1000 μM, percent decrease in TER from time zero

Row | SMILES | activity at 1000 µM ([1]; lipid 1000 μM) [%] | % Original TER ([1]; lipid 1000 μM in Buffer I) [%] | % Original TER ([1]; lipid 1000 μM in Buffer II) [%] | TER reduction within 15 minutes ([1]; lipid 1000 μM) | cytotoxicity at 1 h, 1000 μM (in vitro; [4]) [%] | cytotoxicity at 1 h, 1000 μM (in vitro; [5]) [%] | % Relative Cytotoxic Effect (LDH) [2, 6] [%] | % Relative Cytotoxic Effect (LDH) [2, 7] [%] | % Relative Cytotoxic Effect (LDH) [2, 8] [%] | % Relative Cytotoxic Effect (LDH) [2, 9] [%] | % Relative Cytotoxic Effect (LDH) [2, 10] [%] | % FITC-Dextran Permeation FD10 ([3]; lipid 1000 μM) [%] | % FITC-Dextran Permeation FD40 ([3]; lipid 1000 μM) [%] | % FITC-Dextran Permeation FD70 ([3]; lipid 1000 μM) [%] | % FITC-Dextran Permeation FD500 ([3]; lipid 1000 μM) [%] | % FITC-Dextran Permeation FD3 ([3]; lipid 1000 μM (Table 5)) [%] | % FD3 Permeation ([3]; lipid 1000 μM in Buffer I) [%] | % FD3 Permeation ([3]; lipid 1000 μM in Buffer II) [%] | Mean % FD3 Permeation ([3]; lipid 1000 μM) [%] | permeation of FD3 relative to negative controls [3] | other results
1 | CCCCCCCCCCCCCCCCOC[C@@H](COP(=O)([O-])OCC[N+](C)(C)C)OC(C)=O [C16 Enantiomeric PAF, 3-O-Hexadecyl-2-Acetoyl-sn-Glycero-1-Phosphocholine] | 1 | 2 | 9 | levels equivalent to that of the Triton-X100™ control | 34 | 14 | 34 | 32 | 36 | 31 | 33 | 4 | 2 | 1 | 0 | 20 | 46 | 23 | 11 | enhanced the permeation of FD3 above that of the negative controls | Mean % Relative Cytotoxic Effect (LDH) ([2]; lipid 1000 μM (Table 4)): 35%
2 | CCCCCCCCCCCCCCCCOC[C@H](COP(=O)([O-])OCC[N+](C)(C)C)OC(C)=O [C16-02:0 PC(C16 PAF), 1-O-Hexadecyl-2-Acetoyl-sn-Glycero-3-Phosphocholine] | 2 | 1 | 8 | levels equivalent to that of the Triton-X100™ control | 43 | 13 | 32 | 35 | 31 | 35 | 26 | 6 | 2 | 2 | 0 | 22 | 41 | 27 | 14 | enhanced the permeation of FD3 above that of the negative controls | activity at 500 µM [1]: 27%; cytotoxicity at 1 h (in vitro; % Cytotoxicity, lipid / PYY 10 mg/mL): 23%; Mean % Relative Cytotoxic Effect (LDH) ([2]; lipid 500 μM (Table 4)): 20%; Mean % Relative Cytotoxic Effect (LDH) ([2]; lipid 1000 μM (Table 4)): 32%; Mean % FD3 Permeation ([3]; lipid 500 μM): 5%
3 | C=CCC(=O)O[C@H](COCCCCCCCCCCCCCCCC)COP(=O)([O-])OCC[N+](C)(C)C [C16-04:1 PC] | -2 | 2 | 23 |  |  |  |  |  |  |  |  | 8 | 3 | 0 | 0 | 25 | 44 | 8 | 12 | enhanced the permeation of FD3 above that of the negative controls | activity at 500 µM [1]: 11%; Mean % Relative Cytotoxic Effect (LDH) ([2]; human, 1 h, 500 μM): 18%; Mean % Relative Cytotoxic Effect (LDH) ([2]; human, 1 h, 1000 μM): 27%; Mean % FD3 Permeation ([3]; lipid 500 μM): 6%
4 | CCCCCCCCCCCCCCCCCCOC[C@H](COP(=O)([O-])OCC[N+](C)(C)C)OC(C)=O [C18-02:0 PC(C18 PAF), 1-O-Octadecyl-2-Acetoyl-sn-Glycero-3-Phosphocholine] | 1 | 1 | 7 | levels equivalent to that of the Triton-X100™ control |  |  |  |  |  |  |  | 8 | 3 | 2 | 0 | 24 | 42 | 27 | 8 | enhanced the permeation of FD3 above that of the negative controls | activity at 500 µM [1]: 44%; cytotoxicity at 1 h, 1000 μM (in vitro; human, % Cytotoxicity): 33%; Mean % Relative Cytotoxic Effect (LDH) ([2]; human, 1 h, 500 μM): 8%; % Cytotoxicity ([2]; human, 1 h, 1000 μM): 17%; Mean % Relative Cytotoxic Effect (LDH) ([2]; human, 1 h, 1000 μM): 20%; Mean % FD3 Permeation ([3]; lipid 500 μM): 2%
5 | CCCCCCCCCCCCCCCC(=O)OC[C@H](COP(=O)([O-])OCC[N+](C)(C)C)OC(=O)CCCC(=O)O [PGPC, 1-Palmitoyl-2-Glutaroyl-sn-Glycero-3-Phosphocholine] |  |  |  |  |  |  |  |  |  |  |  |  |  |  |  |  |  |  |  |  | Mean TER Reduction 1 hr. Post-treatment ([1]; lipid 62.5 μM): 21%; Mean TER Reduction 1 hr. Post-treatment ([1]; lipid 125 μM): 28%; Mean TER Reduction 1 hr. Post-treatment ([1]; lipid 250 μM): 48%; Mean TER Reduction 1 hr. Post-treatment ([1]; lipid 500 μM): 80%; Mean TER Reduction 1 hr. Post-treatment [1, 11]: 92%; cytotoxicity at 1 h, 500 μM (in vitro; human, % Cytotoxicity): 2%; LDH levels ([2]; human, 1 h): below 30%; Cytotoxic Effect (LDH) 1 hr. Post-treatments ([2]; human, 1 h, 62.5 μM): 2%; Cytotoxic Effect (LDH) 1 hr. Post-treatments ([2]; human, 1 h, 125 μM): 2%; Cytotoxic Effect (LDH) 1 hr. Post-treatments ([2]; human, 1 h, 250 μM): 4%; Cytotoxic Effect (LDH) 1 hr. Post-treatments ([2]; human, 1 h, 500 μM): 13%; Cytotoxic Effect (LDH) 1 hr. Post-treatments ([2]; human, 1 h, 1000 μM): 21%; % FITC-Dextran Permeation FD3 ([3]; lipid 500 μM (Table 5)): 10%
6 | CC(C)C[C@H](NC(=O)[C@H](C)NC(=O)[C@H](CCCCN)NC(=O)[C@H](CC(C)C)NC(=O)[C@H](C)NC(=O)[C@H](CC(C)C)NC(=O)[C@H](CCCCN)NC(=O)[C@H](CC(C)C)NC(=O)[C@H](C)NC(=O)[C@H](CC(C)C)NC(=O)[C@@H](N)CCCCN)C(=O)N[C@@H](CCCCN)C(=O)N[C@@H](C)C(=O)N[C@@H](C)C(=O)N[C@@H](CC(C)C)C(=O)N[C@@H](CCCCN)C(=O)N[C@@H](CC(C)C)C(=O)N[C@@H](C)C(N)=O [PN159, reference compound] |  |  |  |  |  |  |  |  |  |  |  |  |  |  |  |  |  |  |  |  | % Original TER ([1]; PN159 25 μM / PYY 13.67 mg/mL (High)): 10%; % of the original TER value ([1]; controls of the further test of lipids at 250 μM to 1000 μM (b219-b220)): 8%; Mean TER Reduction 1 hr. Post-treatment ([1]; positive control PN159 25 μM): 85% and 87%; cytotoxicity at 1 hour, 25 μM (in vitro): 33%; % FITC-Dextran Permeation FD10 ([3]; PN159 25 μM): 4%; % FITC-Dextran Permeation FD40 ([3]; PN159 25 μM): 2%; % FITC-Dextran Permeation FD3 ([3]; PN159 25 μM (Table 5)): 7%
7 | CCCCCCCCCCCCCCCC(=O)OC[C@H](COP(=O)([O-])OCC[N+](C)(C)C)OC(=O)CCCC=O [POVPC, 1-Palmitoyl-2-(5′-oxo-Valeroyl)-sn-Glycero-3-Phosphocholine] | 0 | 25 | 17 |  | 15 | 15 | 19 | 11 | 13 | 13 | 12 | 3 | 1 | 0.3 | 0 | 10 | 53 | 9 | 10 | enhanced the permeation of FD3 above that of the negative controls | TER reduction by 60 minutes ([1]; 1000 μM, 60 minutes): levels nearly equivalent to that of the Triton-X100™ control; TER reduced to % below that of the PBS control ([1]; 1000 μM, within 15 minutes): 20%; TER reduced to % of the PBS control ([1]; 1000 μM, within 30 minutes): about 25%; Mean TER Reduction 1 hr. Post-treatment ([1]; lipid 62.5 μM): 23%; Mean TER Reduction 1 hr. Post-treatment ([1]; lipid 125 μM): 32%; Mean TER Reduction 1 hr. Post-treatment ([1]; lipid 250 μM): 52%; Mean TER Reduction 1 hr. Post-treatment ([1]; lipid 500 μM): 87%; Mean TER Reduction 1 hr. Post-treatment [1, 11]: 93%; Cytotoxic Effect (LDH) 1 hr. Post-treatments ([2]; lipid 62.5 μM, percent of Triton-X100 LDH levels): 2%; Cytotoxic Effect (LDH) 1 hr. Post-treatments ([2]; lipid 125 μM, percent of Triton-X100 LDH levels): 2%; Cytotoxic Effect (LDH) 1 hr. Post-treatments ([2]; lipid 250 μM, percent of Triton-X100 LDH levels): 5%; Cytotoxic Effect (LDH) 1 hr. Post-treatments ([2]; lipid 500 μM, percent of Triton-X100 LDH levels): 11%; Mean % Relative Cytotoxic Effect (LDH) ([2]; lipid 1000 μM (Table 4)): 9%; LDH levels for each incubation time period ([2]; lipid 1000 μM, 15, 30 and 60 minute incubation): below 10%; Cytotoxic Effect (LDH) 1 hr. Post-treatments ([2]; lipid 1000 μM, percent of Triton-X100 LDH levels): 21%; permeation of FITC-dextran 3000 (FD3) over time ([3]; 1000 μM, 15, 30, 60 minutes): time-dependent permeation; % FITC-Dextran Permeation FD3 ([3]; lipid 500 μM (Table 5)): 2%
